29 compounds from patent US20220135591A1, “HETEROCYCLIC COMPOUNDS AS INHIBITORS OF MONOACYLGLYCEROL LIPASE (MAGL)” (Hoffmann-La Roche Inc., priority 2019, published 2022) can be followed below.

In the experiment the target is T1, MAGL (Homo sapiens, UniProt Q99685).
T1 sequence (Q99685 1-303): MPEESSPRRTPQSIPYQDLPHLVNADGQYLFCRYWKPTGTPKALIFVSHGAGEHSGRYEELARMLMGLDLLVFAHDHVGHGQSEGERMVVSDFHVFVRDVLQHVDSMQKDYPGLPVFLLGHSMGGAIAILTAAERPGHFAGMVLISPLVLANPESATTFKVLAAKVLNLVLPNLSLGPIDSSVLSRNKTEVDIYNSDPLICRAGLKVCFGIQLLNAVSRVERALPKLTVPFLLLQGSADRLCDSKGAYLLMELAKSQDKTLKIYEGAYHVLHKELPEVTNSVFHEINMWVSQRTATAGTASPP
The experiment can be described thus: 2-AG assay: MAGL inhibitory activity by hydrolysis of 2-arachidonoylglycerol to arachidonic acid, mass spectrometry. Type of experiment: biochemical. As to conditions: 2-AG assay (values marked [b]). An outline of the steps: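 Human MAGL […] was preincubated 15 min at RT with compound ([…], 3-fold steps) in 50 mM Tris, 1 mM EDTA, 0.01% Tween. 2-AG (8 μM) was then added for 30 min at RT. Arachidonic acid was quantified by RapidFire SPE–triple quadrupole MS in negative ESI as its ratio to a d8-arachidonic acid standard.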

Regarding `Cc1cc(C(=O)N2CCN(c3nc4nc(Cl)ccc4o3)CC2)cnc1OCC1(C)CC1` [Example 156, (4-(5-chlorooxazolo[4,5-b]pyridin-2-yl)piperazin-1-yl)(5-methyl-6-((1-methylcyclopropyl)methoxy)pyridin-3-yl)methanone], inhibition was half-maximal at 21 nM (IC50).
With `Cc1cc(C(=O)N2CCN(c3nc4nc(Cl)ccc4o3)CC2)cnc1OCC1(C)COC1` [Example 157, (4-(5-chlorooxazolo[4,5-b]pyridin-2-yl)piperazin-1-yl)(5-methyl-6-((3-methyloxetan-3-yl)methoxy)pyridin-3-yl)methanone] the figure was 317 nM; with `Cc1cc(C(=O)N2CCN(c3nc4nc(Cl)ccc4o3)CC2)cnc1OCC1(C)CC1(F)F` (centres unmarked) [Example 158, (4-(5-chlorooxazolo[4,5-b]pyridin-2-yl)piperazin-1-yl)(6-((2,2-difluoro-1-methylcyclopropyl)methoxy)-5-methylpyridin-3-yl)methanone], 11 nM; with `CCC1(COc2ncc(C(=O)N3CCN(c4nc5nc(Cl)ccc5o4)CC3)cc2C)COC1` [Example 159, (4-(5-chlorooxazolo[4,5-b]pyridin-2-yl)piperazin-1-yl)(6-((3-ethyloxetan-3-yl)methoxy)-5-methylpyridin-3-yl)methanone], 117 nM.
With `COCC1(COc2ncc(C(=O)N3CCN(c4nc5nc(Cl)ccc5o4)CC3)cc2C)CC1` [Example 160, (4-(5-chlorooxazolo[4,5-b]pyridin-2-yl)piperazin-1-yl)(6-((1-(methoxymethyl)cyclopropyl)methoxy)-5-methylpyridin-3-yl)methanone] the figure was 295 nM; with `Cc1cc(C(=O)N2CCN(c3nc4nc(Cl)ccc4o3)CC2)cnc1OCC1(F)COC1` [Example 161, (4-(5-chlorooxazolo[4,5-b]pyridin-2-yl)piperazin-1-yl)(6-((3-fluorooxetan-3-yl)methoxy)-5-methylpyridin-3-yl)methanone], 906 nM.
With `Cc1cc(C(=O)N2CCN(c3nc4nc(Cl)ccc4o3)CC2)cnc1OCC1(CC#N)CC1` [Example 162, 2-(1-(((5-(4-(5-chlorooxazolo[4,5-b]pyridin-2-yl)piperazine-1-carbonyl)-3-methylpyridin-2-yl)oxy)methyl)cyclopropyl)acetonitrile] the figure was 230 nM; with `Cc1cc(C(=O)N2CCN(c3nc4nc(Cl)ccc4o3)CC2)cnc1OCC1(C#N)CC1` [Example 163, 1-(((5-(4-(5-chlorooxazolo[4,5-b]pyridin-2-yl)piperazine-1-carbonyl)-3-methylpyridin-2-yl)oxy)methyl)cyclopropane-1-carbonitrile], 677 nM; with `Cc1cc(C(=O)N2CCN(c3nc4nc(Cl)ccc4o3)CC2)cnc1OCC1(C#N)COC1` [Example 164, 3-(((5-(4-(5-chlorooxazolo[4,5-b]pyridin-2-yl)piperazine-1-carbonyl)-3-methylpyridin-2-yl)oxy)methyl)oxetane-3-carbonitrile], 1540 nM.
In the case of `Cc1cc(C(=O)N2CCN(c3nc4nc(Cl)ccc4o3)CC2)cnc1OCc1cc(F)cc(C#N)c1` [Example 165, 3-(((5-(4-(5-chlorooxazolo[4,5-b]pyridin-2-yl)piperazine-1-carbonyl)-3-methylpyridin-2-yl)oxy)methyl)-5-fluorobenzonitrile], the midpoint of inhibition, the IC50, lay at 42 nM.
In the case of `Cc1cc(C(=O)N2CCN(c3nc4nc(Cl)ccc4o3)CC2)cnc1OCC1CCCO1` (centres unmarked) [Example 166, (4-(5-chlorooxazolo[4,5-b]pyridin-2-yl)piperazin-1-yl)(5-methyl-6-((tetrahydrofuran-2-yl)methoxy)pyridin-3-yl)methanone] it was 475 nM.
In the case of `Cc1ccc2oc(N3CCN(C(=O)c4cnc(OCC5(C(F)(F)F)CC5)c(C)n4)CC3)nc2n1` [Example 167, [4-(5-methyloxazolo[4,5-b]pyridin-2-yl)piperazin-1-yl]-[6-methyl-5-[[1-(trifluoromethyl)cyclopropyl]methoxy]pyrazin-2-yl]methanone] it was 63 nM; in that of `Cc1cc(C(=O)N2CCN(c3nc4nc(Cl)ccc4o3)CC2)cnc1OCC1CCO1` (centres unmarked) [Example 168, (4-(5-chlorooxazolo[4,5-b]pyridin-2-yl)piperazin-1-yl)(5-methyl-6-(oxetan-2-ylmethoxy)pyridin-3-yl)methanone], 1750 nM.
In the case of `COc1cc(C(=O)N2CCN(c3nc4nc(C)ccc4o3)CC2)cnc1OCC1(C(F)(F)F)CC1` [Example 169, [5-methoxy-6-[[1-(trifluoromethyl)cyclopropyl]methoxy]-3-pyridyl]-[4-(5-methyloxazolo[4,5-b]pyridin-2-yl)piperazin-1-yl]methanone] it was 138 nM.
On to `Cc1cc(C(=O)N2CCN(c3nc4nc(Cl)ccc4o3)CC2)cnc1OCC1CCCCO1` (centres unmarked) [Example 170, (4-(5-chlorooxazolo[4,5-b]pyridin-2-yl)piperazin-1-yl)(5-methyl-6-((tetrahydro-2H-pyran-2-yl)methoxy)pyridin-3-yl)methanone], for which half-maximal inhibition (IC50) was put at 57 nM.
On to `COC1(COc2ncc(C(=O)N3CCN(c4nc5nc(Cl)ccc5o4)CC3)cc2C)CC1` [Example 171, (4-(5-chlorooxazolo[4,5-b]pyridin-2-yl)piperazin-1-yl)(6-((1-methoxycyclopropyl)methoxy)-5-methylpyridin-3-yl)methanone], for which the IC50 (in general, the point on the concentration scale where inhibition reaches its midpoint) was found to be 188 nM.
In the case of `Cc1cc(C(=O)N2CCN(c3nc4nc(Cl)ccc4o3)CC2)cnc1OC[C@H](F)CF` [Example 172, (S)-(4-(5-chlorooxazolo[4,5-b]pyridin-2-yl)piperazin-1-yl)(6-(2,3-difluoropropoxy)-5-methylpyridin-3-yl)methanone] it was 978 nM; in that of `Cc1cc(C(=O)N2CCN(c3nc4nc(Cl)ccc4o3)CC2)cnc1OCCC(F)(F)F` [Example 173, (4-(5-chlorooxazolo[4,5-b]pyridin-2-yl)piperazin-1-yl)(5-methyl-6-(3,3,3-trifluoropropoxy)pyridin-3-yl)methanone], 135 nM.
In the case of `Cc1cc(C(=O)N2CCN(c3nc4nc(Cl)ccc4o3)CC2)cnc1OC[C@@H](F)CF` [Example 174, (R)-(4-(5-chlorooxazolo[4,5-b]pyridin-2-yl)piperazin-1-yl)(6-(2,3-difluoropropoxy)-5-methylpyridin-3-yl)methanone], the IC50 is 706 nM.
In turn, `Cc1cc(C(=O)N2CCN(c3nc4nc(Cl)ccc4o3)CC2)cnc1-c1cnn(C(C)(C)C)c1` [Example 190, [6-(1-tert-butylpyrazol-4-yl)-5-methylpyridin-3-yl]-[4-(5-chloro-[1,3]oxazolo[4,5-b]pyridin-2-yl)piperazin-1-yl]methanone] displayed an IC50 of 46 nM.
With `Cc1ccc2oc(N3CCN(C(=O)c4cnc(-c5cnn(C(C)(C)C)c5)c(C)c4)CC3)nc2n1` [Example 191, [6-(1-tert-butylpyrazol-4-yl)-5-methylpyridin-3-yl]-[4-(5-methyl-[1,3]oxazolo[4,5-b]pyridin-2-yl)piperazin-1-yl]methanone] the figure was 98 nM.
With `Cc1cc(C(=O)N2CCN(c3nc4nc(Cl)ccc4o3)CC2)ccc1-c1cn(CC(C)(C)C)nn1` [Example 231, (4-(5-chlorooxazolo[4,5-b]pyridin-2-yl)piperazin-1-yl)(3-methyl-4-(1-neopentyl-1H-1,2,3-triazol-4-yl)phenyl)methanone] the figure was 4 nM.
With `Cc1cc(C(=O)N2CCN(c3nc4nc(Cl)ccc4o3)CC2)ccc1-c1cnn(CC(C)(C)C)n1` [Example 232, (4-(5-chlorooxazolo[4,5-b]pyridin-2-yl)piperazin-1-yl)(3-methyl-4-(2-neopentyl-2H-1,2,3-triazol-4-yl)phenyl)methanone] the figure was 1 nM; with `CC(C)(C)Cn1cc(-c2ccc(C(=O)N3CCN(c4nc5nc(Cl)ccc5o4)CC3)cc2C#N)nn1` [Example 233, 5-(4-(5-chlorooxazolo[4,5-b]pyridin-2-yl)piperazine-1-carbonyl)-2-(1-neopentyl-1H-1,2,3-triazol-4-yl)benzonitrile], 20 nM.
For the compound `CC(C)(C)Cn1ncc(-c2ccc(C(=O)N3CCN(c4nc5nc(Cl)ccc5o4)CC3)cc2C#N)n1` [Example 234, 5-(4-(5-chlorooxazolo[4,5-b]pyridin-2-yl)piperazine-1-carbonyl)-2-(2-neopentyl-2H-1,2,3-triazol-4-yl)benzonitrile], the IC50 turned out to be 10 nM.
In the case of `Cc1ccc2oc(N3CCN(C(=O)c4ccc(-c5cn(CC(C)(C)C)nn5)c(C#N)c4)CC3)nc2n1` [Example 235, 5-(4-(5-methyloxazolo[4,5-b]pyridin-2-yl)piperazine-1-carbonyl)-2-(1-neopentyl-1H-1,2,3-triazol-4-yl)benzonitrile] it was 104 nM; in that of `Cc1ccc2oc(N3CCN(C(=O)c4ccc(-c5cnn(CC(C)(C)C)n5)c(C#N)c4)CC3)nc2n1` [Example 236, 5-(4-(5-methyloxazolo[4,5-b]pyridin-2-yl)piperazine-1-carbonyl)-2-(2-neopentyl-2H-1,2,3-triazol-4-yl)benzonitrile], 33 nM; in that of `COc1cc(C(=O)N2CCN(c3nc4nc(Cl)ccc4o3)CC2)ccc1-c1cn(CC(C)(C)C)nn1` [Example 237, (4-(5-chlorooxazolo[4,5-b]pyridin-2-yl)piperazin-1-yl)(3-methoxy-4-(1-neopentyl-1H-1,2,3-triazol-4-yl)phenyl)methanone], 7 nM.
In the case of `COc1cc(C(=O)N2CCN(c3nc4nc(Cl)ccc4o3)CC2)ccc1-c1cnn(CC(C)(C)C)n1` [Example 238, (4-(5-chlorooxazolo[4,5-b]pyridin-2-yl)piperazin-1-yl)(3-methoxy-4-(2-neopentyl-2H-1,2,3-triazol-4-yl)phenyl)methanone] it was 1 nM.
